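Compound exposure: 48 hours, 5 concentrations, 96-well plates. At the GI50, growth is halved.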 Active and inactive are the calls of the source. No stated cut-off is given here; in the data, active = GI50 up to about 1.1 µM and inactive = higher.
Experiments:
Assay in all cases: NCI anticancer screen, dose series, 48 h
[1] = tested on: UACC-62
[2] = tested on: ACHN
[3] = tested on: CCRF-CEM
[4] = tested on: HCC 2998
[5] = tested on: MDA-MB-435
[6] = tested on: HCT-116
[7] = tested on: K562
[8] = tested on: OVCAR-8
[9] = tested on: MCF7
[10] = tested on: SF-539
[11] = tested on: M14
[12] = tested on: DU-145
[13] = tested on: EKVX
[14] = tested on: OVCAR-3
[15] = tested on: SNB-75
[16] = tested on: SK-MEL-5
[17] = tested on: SF-268
[18] = tested on: SW-620
[19] = tested on: UACC-257
[20] = tested on: RPMI-8226
[21] = tested on: T47D
[22] = tested on: PC-3
[23] = tested on: SR
[24] = tested on: COLO 205
[25] = tested on: HL-60
[26] = tested on: SK-MEL-28
[27] = tested on: SNB-19
[28] = tested on: SF-295
[29] = tested on: BT-549
[30] = tested on: OVCAR-5
[31] = tested on: LOX IMVI
[32] = tested on: NCI/ADR-RES
[33] = tested on: RXF 393
[34] = tested on: SK-MEL-2
[35] = tested on: A549
[36] = tested on: KM12
[37] = tested on: IGROV-1
[38] = tested on: A498
[39] = tested on: 786-0
[40] = tested on: HCT-15
[41] = tested on: HOP-62
[42] = tested on: TK-10
[43] = tested on: U-251
[44] = tested on: Hs-578T
[45] = tested on: NCI-H460
[46] = tested on: CAKI-1
[47] = tested on: MDA-MB-231
[48] = tested on: HT-29
[49] = tested on: MOLT-4
[50] = tested on: UO-31
[51] = tested on: OVCAR-4
[52] = tested on: SN12C
[53] = tested on: HOP-92
[54] = tested on: SK-OV-3
[55] = tested on: MDA-N
[56] = tested on: NCI-H23
[57] = tested on: NCI-H522
[58] = tested on: NCI-H226
[59] = tested on: Malme-3M

In the case of `COc1cc(/C=C2\N=C(c3ccccc3)N(c3nc4c(Cl)cc(Cl)cc4s3)C2=O)ccc1O`, the GI50 [1] is reported as 25.8 µM (inactive), the GI50 [2] is reported as 25.8 µM (inactive) and the GI50 [3] is reported as 13.6 µM (inactive). For the same compound, the GI50 [4] was 19.8 µM (inactive), the GI50 [5] was 27.5 µM (inactive) and the GI50 [6] was 24 µM (inactive). The GI50 [7] was 24.8 µM (inactive), the GI50 [8] was 31.8 µM (inactive) and the GI50 [9] was 28.1 µM (inactive). For the same compound, the GI50 [10] was 41.6 µM (inactive), the GI50 [11] was 40.5 µM (inactive) and the GI50 [12] was 34.8 µM (inactive). The GI50 [13] was 17.9 µM (inactive), the GI50 [14] was 24.2 µM (inactive) and the GI50 [15] was 39.3 µM (inactive). The GI50 [16] was 24.5 µM (inactive), the GI50 [17] was 30.1 µM (inactive) and the GI50 [18] was 32.4 µM (inactive). The GI50 [19] was 30.9 µM (inactive), the GI50 [20] was 8.53 µM (inactive) and the GI50 [21] was 24.8 µM (inactive). The GI50 [22] was 19.5 µM (inactive), the GI50 [23] was 11.1 µM (inactive) and the GI50 [24] was 43.4 µM (inactive). The GI50 [25] was 16.3 µM (inactive), the GI50 [26] was 52 µM (inactive) and the GI50 [27] was 36.6 µM (inactive). For the same compound, the GI50 [28] was 34.4 µM (inactive), the GI50 [29] was 21.1 µM (inactive) and the GI50 [30] was 71 µM (inactive). The GI50 [31] was 20.5 µM (inactive), the GI50 [32] was 31 µM (inactive) and the GI50 [33] was 20.9 µM (inactive). The GI50 [34] was 23.4 µM (inactive), the GI50 [35] was 30.8 µM (inactive) and the GI50 [36] was 25.4 µM (inactive). For the same compound, the GI50 [37] was 29.1 µM (inactive), the GI50 [38] was 17.8 µM (inactive) and the GI50 [39] was 35.9 µM (inactive). For the same compound, the GI50 [40] was 31.3 µM, the GI50 [41] was 32 µM (inactive) and the GI50 [42] was 39.9 µM (inactive). The GI50 [43] was 22.9 µM (inactive), the GI50 [44] was 18.2 µM (inactive) and the GI50 [45] was 28.3 µM (inactive). For the same compound, the GI50 [46] was 46.3 µM (inactive), the GI50 [47] was 25.8 µM (inactive) and the GI50 [48] was 27.7 µM (inactive). The GI50 [49] was 0.059 µM (active), the GI50 [50] was 27 µM (inactive) and the GI50 [51] was 29.2 µM (inactive). For the same compound, the GI50 [52] was 22.2 µM (inactive), the GI50 [53] was 21.3 µM (inactive) and the GI50 [54] was 55.7 µM (inactive).

With `Nc1nc(Cl)cc(NC23CC4CC(CC(C4)C2)C3)n1` the GI50 [1] was > 100 µM (inactive), the GI50 [2] was > 100 µM (inactive) and the GI50 [3] was > 100 µM (inactive). The GI50 [4] was > 100 µM (inactive), the GI50 [5] was > 100 µM (inactive) and the GI50 [6] was 78.2 µM (inactive). For the same compound, the GI50 [7] was > 100 µM (inactive), the GI50 [8] was 90.6 µM (inactive) and the GI50 [55] was > 100 µM (inactive). The GI50 [9] was 85.9 µM (inactive), the GI50 [10] was 47.9 µM (inactive) and the GI50 [11] was > 100 µM (inactive). The GI50 [12] was > 100 µM (inactive), the GI50 [13] was > 100 µM (inactive) and the GI50 [14] was > 100 µM (inactive). The GI50 [15] was 26.2 µM (inactive), the GI50 [17] was 47.1 µM (inactive) and the GI50 [18] was > 100 µM (inactive). For the same compound, the GI50 [19] was > 100 µM (inactive), the GI50 [20] was > 100 µM (inactive) and the GI50 [21] was > 100 µM (inactive). For the same compound, the GI50 [22] was 29.2 µM (inactive), the GI50 [23] was > 100 µM (inactive) and the GI50 [24] was 81.8 µM (inactive). For the same compound, the GI50 [26] was > 100 µM (inactive), the GI50 [27] was > 100 µM (inactive) and the GI50 [28] was 85.5 µM (inactive). For the same compound, the GI50 [29] was 61.7 µM (inactive), the GI50 [30] was > 100 µM (inactive) and the GI50 [56] was 34 µM (inactive). For the same compound, the GI50 [32] was 42.9 µM (inactive), the GI50 [33] was > 100 µM (inactive) and the GI50 [34] was 19.4 µM (inactive). The GI50 [35] was 98.6 µM (inactive), the GI50 [36] was > 100 µM (inactive) and the GI50 [37] was 57.3 µM (inactive). The GI50 [38] was > 100 µM (inactive), the GI50 [39] was > 100 µM (inactive) and the GI50 [40] was 40.6 µM. The GI50 [41] was > 100 µM (inactive), the GI50 [43] was 32 µM (inactive) and the GI50 [57] was 31 µM (inactive). For the same compound, the GI50 [58] was 76.2 µM (inactive), the GI50 [45] was > 100 µM (inactive) and the GI50 [46] was > 100 µM (inactive). For the same compound, the GI50 [47] was 94.6 µM (inactive), the GI50 [49] was > 100 µM (inactive) and the GI50 [50] was > 100 µM (inactive). The GI50 [59] was 44.1 µM (inactive), the GI50 [51] was > 100 µM (inactive) and the GI50 [52] was > 100 µM (inactive). The GI50 [53] was > 100 µM (inactive) and the GI50 [54] was > 100 µM (inactive).
